For experiment [1], the system named is NCI-H226 subcutaneous xenograft tumor. The experiment can be described thus: Subcutaneous tumor xenograft model. The class given is in vivo, SCID mice. To be noted: cisplatin 9 mg/kg. How it is done:
A suspension of NCI-H226 cells was injected subcutaneously into the flanks of six weeks old male severe […] combined immune deficiency (SCID) mice (Charles River Lab., Wilmington, Mass.). The size of tumors was measured three times a week using a caliper. The volumes were calculated using the following formula: volume (cm^3)=[width^2 (mm)×length (mm)]/2000. The relative tumor volume was expressed as the Vt/V0 index, where Vt is the tumor volume on a measured day, and V0 is the volume of the same tumor just before the first treatment. Mean relative tumor sizes with standard error of mean, SEM, were plotted. Body weight was measured three times weekly from the first treatment, and the weight change was expressed as a percentage of the initial weight. Animals were housed in accordance with guidelines from the Association for the Assessment and Accreditation of Laboratory Animal Care International, and the protocols were approved by the institutional animal care committee of CanBas Co., Ltd.
The statistical significance of the differences of the relative tumor volume between groups was determined by Student's t tests.

Experiment [2] has as its system NCI-H226 cells. The class given is cell-based. The following applies: bleomycin 2 μg/ml alone. As for the experimental part: The cells were harvested and lysed in a lysis buffer [50 mM Tris-HCl (pH 8.0), 5 mM EDTA (pH 8.0), 100 mM NaCl, 0.5% NP-40, 2 mM DTT, 50 mM NaF, 1 mM Na3VO4, 1 μM microcystin, proteinase inhibitors cocktail (Roche, Mannheim, Germany)] for 30 min on ice and the lysates were clarified by centrifugation at 15,000 rpm for 20 min at 4° C. Protein concentration of the supernatants was evaluated using a detergent-compatible protein assay kit (Bio-Rad, Hercules, Calif.) according to the manufacturer's instructions. Whole cell lysates (60 μg) were run on a 10-12% SDS-PAGE gel, and transferred onto polyvinylidene difluoride (PVDF) membranes (Bio-Rad). The membrane was blocked at room temperature for 1 hr in TBST (0.1% Tween 20 in TBS) containing 2% ECL Advance Blocking Reagent (GE healthcare, Waukesha, Wis.) and incubated with primary antibody overnight at 4° C. The membrane was incubated with anti-peroxidase conjugated secondary antibody (Cell Signaling) for 1 hr at room temperature and analyzed using the enhanced chemiluminescence detection system (ECL Advance Western Blotting Detection Kit, GE healthcare).

Experiment [3] has as its system NCI-H226 cells. The experiment can be described thus: Confocal immunofluorescence analysis of damage foci. The class given is cell-based. To be noted: bleomycin at 0.4 μg/ml alone. How it is done: The cells were fixed in ice-cold methanol at −20° C. for 20 min, and blocked with PBS containing 5% BSA for 45 min. Cells were then incubated with anti-γ-H2AX, anti-ATM p-Ser1981, anti-DNA-PKcs p-Thr2609, anti-NBS1 p-Ser343, or anti-SMC1 p-Ser957 antibodies overnight at 4° C., followed by incubation with Alexa 594-conjugated secondary antibody (Invitrogen, Carlsbad, Calif.) for 1 hr at room temperature in the dark. Cell nuclei were stained using Hoechst 33342. Fluorescence was visualized and analyzed using Becton Dickinson Pathway450. The intensity of the nuclei and number of foci was assessed by ATTOVision and IPLab software (Becton Dickinson), respectively.

As for `N.N.[Cl][Pt][Cl]` [cisplatin], in experiment [1], the tumor growth result is reported as “suppressed tumor growth”.

With bleomycin, in experiment [2], the “phosphorylation of ATM (Ser1981), H2AX, CHK1 (Ser317), CHK2 (Thr68)” value is “induced phosphorylation”. Further, the “foci formation (γ-H2AX, NBS1 p-Ser343, ATM p-Ser1981, SMC1 p-Ser957)” value in experiment [3] is “only marginally increased foci formation”.
